# Assay results reported in ChEMBL document CHEMBL1201862, “PubChem BioAssay data set” (2004).
#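 In this assay, cells in 96-well plates receive the compound at five concentrations for 48 hours. Endpoints are linearly interpolated between the surrounding concentrations. Here, GI50 denotes the concentration required for 50% inhibition of growth.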 The source made the active and inactive calls. No stated cut-off is given here; in the data, active = GI50 up to about 1.1 µM and inactive = higher.
# Tests used:
# Assay in all cases: NCI anticancer screen, dose series, 48 h
# 786-0 = test system: 786-0
# A498 = test system: A498
# A549 = test system: A549
# ACHN = test system: ACHN
# BT-549 = test system: BT-549
# CAKI-1 = test system: CAKI-1
# CCRF-CEM = test system: CCRF-CEM
# COLO 205 = test system: COLO 205
# DU-145 = test system: DU-145
# EKVX = test system: EKVX
# HCC 2998 = test system: HCC 2998
# HCT-116 = test system: HCT-116
# HCT-15 = test system: HCT-15
# HL-60 = test system: HL-60
# HOP-62 = test system: HOP-62
# HOP-92 = test system: HOP-92
# HT-29 = test system: HT-29
# Hs-578T = test system: Hs-578T
# IGROV-1 = test system: IGROV-1
# K562 = test system: K562
# KM12 = test system: KM12
# LOX IMVI = test system: LOX IMVI
# M14 = test system: M14
# MCF7 = test system: MCF7
# MDA-MB-231 = test system: MDA-MB-231
# MDA-MB-435 = test system: MDA-MB-435
# MDA-N = test system: MDA-N
# MOLT-4 = test system: MOLT-4
# Malme-3M = test system: Malme-3M
# NCI-H226 = test system: NCI-H226
# NCI-H23 = test system: NCI-H23
# NCI-H460 = test system: NCI-H460
# NCI-H522 = test system: NCI-H522
# NCI/ADR-RES = test system: NCI/ADR-RES
# OVCAR-3 = test system: OVCAR-3
# OVCAR-4 = test system: OVCAR-4
# OVCAR-5 = test system: OVCAR-5
# OVCAR-8 = test system: OVCAR-8
# PC-3 = test system: PC-3
# RPMI-8226 = test system: RPMI-8226
# RXF 393 = test system: RXF 393
# SF-268 = test system: SF-268
# SF-295 = test system: SF-295
# SF-539 = test system: SF-539
# SK-MEL-28 = test system: SK-MEL-28
# SK-MEL-2 = test system: SK-MEL-2
# SK-MEL-5 = test system: SK-MEL-5
# SK-OV-3 = test system: SK-OV-3
# SN12C = test system: SN12C
# SNB-19 = test system: SNB-19
# SNB-75 = test system: SNB-75
# SR = test system: SR
# SW-620 = test system: SW-620
# T47D = test system: T47D
# TK-10 = test system: TK-10
# U-251 = test system: U-251
# UACC-257 = test system: UACC-257
# UACC-62 = test system: UACC-62
# UO-31 = test system: UO-31
structure (smiles),measurement,setting,value
C=C1c2nc3ccccc3n2C=C(c2ccc(C)cc2)N1c1ccccc1,GI50,786-0,3.48 µM (inactive)
same,GI50,A498,4.53 µM (inactive)
same,GI50,A549,5.55 µM (inactive)
same,GI50,ACHN,15.1 µM (inactive)
same,GI50,BT-549,7.78 µM (inactive)
same,GI50,CAKI-1,20.5 µM (inactive)
same,GI50,CCRF-CEM,3.3 µM (inactive)
same,GI50,COLO 205,3.04 µM (inactive)
same,GI50,DU-145,3.9 µM (inactive)
same,GI50,EKVX,2.9 µM (inactive)
same,GI50,HCC 2998,2.26 µM (inactive)
same,GI50,HCT-116,2.9 µM (inactive)
same,GI50,HCT-15,1.47 µM
same,GI50,HL-60,1.85 µM (inactive)
same,GI50,HOP-62,6.49 µM (inactive)
same,GI50,HOP-92,27.1 µM (inactive)
same,GI50,HT-29,1.61 µM (inactive)
same,GI50,Hs-578T,4.21 µM (inactive)
same,GI50,IGROV-1,3.33 µM (inactive)
same,GI50,K562,1.11 µM (active)
same,GI50,KM12,1.1 µM (active)
same,GI50,LOX IMVI,5.24 µM (inactive)
same,GI50,M14,3.12 µM (inactive)
same,GI50,MCF7,2.47 µM (inactive)
same,GI50,MDA-MB-231,4.92 µM (inactive)
same,GI50,MDA-MB-435,0.439 µM (active)
same,GI50,MDA-N,0.508 µM (active)
same,GI50,MOLT-4,4.41 µM (inactive)
same,GI50,Malme-3M,2.62 µM (inactive)
same,GI50,NCI-H226,2.43 µM (inactive)
same,GI50,NCI-H23,4.02 µM (inactive)
same,GI50,NCI-H460,2.88 µM (inactive)
same,GI50,NCI-H522,0.617 µM (active)
same,GI50,NCI/ADR-RES,1.79 µM (inactive)
same,GI50,OVCAR-3,2.38 µM (inactive)
same,GI50,OVCAR-4,22.4 µM (inactive)
same,GI50,OVCAR-5,20.7 µM (inactive)
same,GI50,OVCAR-8,5.14 µM (inactive)
same,GI50,PC-3,2.75 µM (inactive)
same,GI50,RPMI-8226,2.3 µM (inactive)
same,GI50,RXF 393,3.36 µM (inactive)
same,GI50,SF-268,12.9 µM (inactive)
same,GI50,SF-295,1.88 µM (inactive)
same,GI50,SF-539,2.44 µM (inactive)
same,GI50,SK-MEL-28,5.58 µM (inactive)
same,GI50,SK-MEL-2,4.49 µM (inactive)
same,GI50,SK-MEL-5,2.13 µM (inactive)
same,GI50,SK-OV-3,7.45 µM (inactive)
same,GI50,SN12C,6.22 µM (inactive)
same,GI50,SNB-19,4.04 µM (inactive)
same,GI50,SNB-75,2.08 µM (inactive)
same,GI50,SR,0.445 µM (active)
same,GI50,SW-620,1.67 µM (inactive)
same,GI50,T47D,3.24 µM (inactive)
same,GI50,TK-10,18.8 µM (inactive)
same,GI50,U-251,3.27 µM (inactive)
same,GI50,UACC-257,7.93 µM (inactive)
same,GI50,UACC-62,2.86 µM (inactive)
same,GI50,UO-31,9.62 µM (inactive)
C=CC[C@]1(C2=NC(C)(C)CO2)c2ccccc2-c2ccccc2[C@H]1C(C)=O,GI50,786-0,9.71 µM (inactive)
same,GI50,A498,7.67 µM (inactive)
same,GI50,A549,9.31 µM (inactive)
same,GI50,ACHN,12.5 µM (inactive)
same,GI50,BT-549,16 µM (inactive)
same,GI50,CAKI-1,10.5 µM (inactive)
same,GI50,CCRF-CEM,7.1 µM (inactive)
same,GI50,COLO 205,4.41 µM (inactive)
same,GI50,DU-145,14.4 µM (inactive)
same,GI50,EKVX,15.6 µM (inactive)
same,GI50,HCC 2998,8.11 µM (inactive)
same,GI50,HCT-116,5.4 µM (inactive)
same,GI50,HCT-15,4.82 µM
same,GI50,HL-60,3.93 µM (inactive)
same,GI50,HOP-62,0.643 µM (active)
same,GI50,HOP-92,16.4 µM (inactive)
same,GI50,HT-29,4.19 µM (inactive)
same,GI50,Hs-578T,6.5 µM (inactive)
same,GI50,IGROV-1,8.38 µM (inactive)
same,GI50,K562,4.91 µM (inactive)
same,GI50,KM12,5.73 µM (inactive)
same,GI50,LOX IMVI,10.6 µM (inactive)
same,GI50,M14,7.76 µM (inactive)
same,GI50,MCF7,4.22 µM (inactive)
same,GI50,MDA-MB-231,14.2 µM (inactive)
same,GI50,MDA-MB-435,3.64 µM (inactive)
same,GI50,MDA-N,2.74 µM (inactive)
same,GI50,MOLT-4,9.27 µM (inactive)
same,GI50,Malme-3M,5.57 µM (inactive)
same,GI50,NCI-H226,14 µM (inactive)
same,GI50,NCI-H23,12.7 µM (inactive)
same,GI50,NCI-H460,6.03 µM (inactive)
same,GI50,NCI-H522,2.61 µM (inactive)
same,GI50,NCI/ADR-RES,4 µM (inactive)
same,GI50,OVCAR-3,3.13 µM (inactive)
same,GI50,OVCAR-4,15.6 µM (inactive)
same,GI50,OVCAR-5,19.9 µM (inactive)
same,GI50,OVCAR-8,15.7 µM (inactive)
same,GI50,PC-3,6.41 µM (inactive)
same,GI50,RPMI-8226,7.23 µM (inactive)
same,GI50,RXF 393,3.68 µM (inactive)
same,GI50,SF-268,10 µM (inactive)
same,GI50,SF-295,4.61 µM (inactive)
same,GI50,SF-539,10.8 µM (inactive)
same,GI50,SK-MEL-28,14.2 µM (inactive)
same,GI50,SK-MEL-2,3.92 µM (inactive)
same,GI50,SK-MEL-5,3.54 µM (inactive)
same,GI50,SK-OV-3,9.31 µM (inactive)
same,GI50,SN12C,15.6 µM (inactive)
same,GI50,SNB-19,11.6 µM (inactive)
same,GI50,SNB-75,10.9 µM (inactive)
same,GI50,SR,3.27 µM (inactive)
same,GI50,SW-620,7.55 µM (inactive)
same,GI50,T47D,13 µM (inactive)
same,GI50,TK-10,12.5 µM (inactive)
same,GI50,U-251,8.15 µM (inactive)
same,GI50,UACC-257,6.05 µM (inactive)
same,GI50,UACC-62,5.65 µM (inactive)
same,GI50,UO-31,14.1 µM (inactive)
